A short description of test [1]: Luminescence Cell-Based Dose Response HTS to Identify Inhibitors of 5'UTR Stem-Loop Driven Prion Protein mRNA Translation in H4 Neuroglioblastoma Cells. [Related pubchem assays: 1827 (Project Summary), 1813 (Primary HTS)]. It is filed as functional.
Test [2] is described as follows: inhibitors of SNCA 5'UTR-driven reporter translation, confirmation, H4 neuroglioma cells, luminescence (AID 1988). It is filed as functional, cell-based.
Test [3] in a line: inhibitors of firefly luciferase expression or activity, dose response, H4 neuroglioma cells, luminescence (AID 1990). Type of test: functional, cell-based.
Test [4] addresses Cytochrome P450 2C19 (Homo sapiens, UniProt P33261). Briefly: Cytochrome panel assay with activity outcomes. Panel member name: p450-cyp2c19 Compounds with AC50 equal or less than 10 uM are considered active. To be noted: read-out: AC50. It is filed as functional.
Test [5] concerns the target Cytochrome P450 3A4 (Homo sapiens, UniProt P08684).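 Further: CYP3A4 tested as one member of a cytochrome P450 panel screen.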
The target in test [6] is Cytochrome P450 2C9 (Homo sapiens, UniProt P11712).
The nature of test [7]: P. falciparum Dd2 growth inhibitors, dose response, SYBR Green, cherry-picked samples (AID 1159567). Type of test: functional, cell-based.
In test [8] the target is T1, Heat shock factor protein 1 (Mus musculus, UniProt P38532).
T1 sequence (P38532 whole entry): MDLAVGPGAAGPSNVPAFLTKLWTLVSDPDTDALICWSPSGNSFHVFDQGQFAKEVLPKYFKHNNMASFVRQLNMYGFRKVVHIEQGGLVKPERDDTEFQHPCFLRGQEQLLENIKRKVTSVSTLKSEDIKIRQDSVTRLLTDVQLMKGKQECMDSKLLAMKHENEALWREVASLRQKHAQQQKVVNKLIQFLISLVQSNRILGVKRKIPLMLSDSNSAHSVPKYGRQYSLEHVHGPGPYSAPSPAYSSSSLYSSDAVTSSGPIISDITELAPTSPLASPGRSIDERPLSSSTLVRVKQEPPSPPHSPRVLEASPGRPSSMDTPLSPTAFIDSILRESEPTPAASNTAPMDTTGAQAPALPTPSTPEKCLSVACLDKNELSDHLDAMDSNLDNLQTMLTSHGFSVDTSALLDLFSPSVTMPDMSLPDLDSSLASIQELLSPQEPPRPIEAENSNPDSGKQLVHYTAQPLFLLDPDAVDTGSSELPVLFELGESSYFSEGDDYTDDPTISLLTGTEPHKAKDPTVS
Briefly: inhibition of MG132-induced HSE-luciferase signal, confirmation, cell-based, NIH3T3, luminescence, dose retest (AID 2382).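 Further: NIH3T3 fibroblasts with HSF1-driven luciferase reporter stressed by proteasome inhibitor MG132; luminescence from HSF1-driven luciferase expression after 8 hours of MG132 stress.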 It is filed as functional.

The subject of test [9] is H9c2. Briefly: cells. It is filed as functional, cell-based. The settings on record: Rattus norvegicus, H9c2, Myocardium.
The target of test [10] is T2, Cytochrome P450 1A2 (Homo sapiens, UniProt P05177).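 Further: PubChem cytochrome P450 panel assay, CYP1A2 panel member.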
T2 sequence (P05177 whole entry): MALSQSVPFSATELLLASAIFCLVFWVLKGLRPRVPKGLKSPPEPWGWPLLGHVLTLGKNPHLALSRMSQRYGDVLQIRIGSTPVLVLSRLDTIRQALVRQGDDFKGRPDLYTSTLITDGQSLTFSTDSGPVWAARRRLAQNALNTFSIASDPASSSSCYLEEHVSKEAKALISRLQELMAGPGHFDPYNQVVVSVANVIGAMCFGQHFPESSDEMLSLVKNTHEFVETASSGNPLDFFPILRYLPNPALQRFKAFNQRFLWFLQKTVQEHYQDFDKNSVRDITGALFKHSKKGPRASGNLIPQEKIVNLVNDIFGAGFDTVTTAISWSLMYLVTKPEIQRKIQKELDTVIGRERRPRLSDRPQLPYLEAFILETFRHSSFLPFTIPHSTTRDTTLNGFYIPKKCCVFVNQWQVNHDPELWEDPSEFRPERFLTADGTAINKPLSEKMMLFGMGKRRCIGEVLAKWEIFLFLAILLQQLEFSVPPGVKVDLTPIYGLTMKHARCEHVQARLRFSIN

Test [11] is described as follows: NIH-3T3 fibroblast cytotoxicity, dose response, cytotoxicity control, cell-based, fluorescence, Alamar Blue, secondary assay (AID 2327).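 Further: NIH-3T3 mouse fibroblasts cultured with fluconazole at 8 µg/mL.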 It is filed as functional.
Test [12] concerns Streptococcus sp. 'group A'. Description: growth inhibition of control SK(-) GAS strain, dose response, counter-screen for streptokinase expression inhibitor project, luminescence, kanamycin, BacTiterGlo, confirmation (AID 1900). It is filed as functional, organism-based.
The subject of test [13] is Streptococcus. Description: Group A Streptococcus viability loss, dose response, counter-screen for streptokinase expression inhibitor project, luminescence, BacTiterGlo (AID 1915).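 Further: potency for reduction of bacterial viability or growth.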 It is filed as functional, organism-based.
Test [14] addresses T3, Streptokinase A (Streptococcus pyogenes serotype M1, UniProt P10520).
T3 sequence (P10520 whole entry): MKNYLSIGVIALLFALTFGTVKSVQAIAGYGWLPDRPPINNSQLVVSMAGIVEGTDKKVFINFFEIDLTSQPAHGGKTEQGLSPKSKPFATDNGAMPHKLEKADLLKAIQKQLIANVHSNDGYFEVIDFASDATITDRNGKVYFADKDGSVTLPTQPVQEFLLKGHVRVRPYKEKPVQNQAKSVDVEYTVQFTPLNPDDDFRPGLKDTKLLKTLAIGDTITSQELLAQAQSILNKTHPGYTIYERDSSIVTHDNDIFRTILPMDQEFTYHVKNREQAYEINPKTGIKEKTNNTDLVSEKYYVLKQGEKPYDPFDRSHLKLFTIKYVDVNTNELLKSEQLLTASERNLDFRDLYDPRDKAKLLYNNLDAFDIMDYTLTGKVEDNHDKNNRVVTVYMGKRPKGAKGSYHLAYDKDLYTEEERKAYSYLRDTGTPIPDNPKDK
Description: S. pyogenes streptokinase expression inhibitors, potency, dose response, plasminogen activation absorbance, OD405 (AID 1914).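 Further: secreted streptokinase activity via plasminogen activation per viability signal from cell pellet.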 It is filed as functional, Streptococcus pyogenes M1 GAS.

The target in test [15] is T4, Corticotropin-releasing factor receptor 2/Corticotropin-releasing factor-binding protein (Homo sapiens, UniProt P24387+Q13324).
T4 sequence (Q13324 whole entry): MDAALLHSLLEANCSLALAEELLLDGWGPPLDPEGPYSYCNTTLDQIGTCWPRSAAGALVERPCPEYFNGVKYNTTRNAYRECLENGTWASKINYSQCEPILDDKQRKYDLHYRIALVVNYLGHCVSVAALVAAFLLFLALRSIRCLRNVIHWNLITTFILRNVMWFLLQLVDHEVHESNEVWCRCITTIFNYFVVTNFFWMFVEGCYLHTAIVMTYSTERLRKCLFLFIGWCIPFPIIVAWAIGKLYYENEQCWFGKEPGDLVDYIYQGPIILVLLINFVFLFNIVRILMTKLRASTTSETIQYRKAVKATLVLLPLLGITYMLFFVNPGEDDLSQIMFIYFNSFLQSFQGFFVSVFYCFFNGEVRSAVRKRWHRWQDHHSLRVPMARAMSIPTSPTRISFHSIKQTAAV
T4 sequence (P24387 whole entry): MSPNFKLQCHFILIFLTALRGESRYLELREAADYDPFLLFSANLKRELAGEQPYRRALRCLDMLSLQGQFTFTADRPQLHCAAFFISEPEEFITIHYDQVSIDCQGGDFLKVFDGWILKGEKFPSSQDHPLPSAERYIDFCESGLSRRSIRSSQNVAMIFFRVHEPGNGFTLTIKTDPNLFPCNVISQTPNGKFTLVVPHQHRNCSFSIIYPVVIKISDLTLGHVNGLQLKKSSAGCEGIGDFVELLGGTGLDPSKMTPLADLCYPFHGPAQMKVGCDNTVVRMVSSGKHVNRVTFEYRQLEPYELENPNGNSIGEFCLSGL
Description: activators of CRF receptor 2 with binding protein – uHTS hits, confirmation (AID 602473). To be noted: read-out: EC50_Mean. It is filed as functional.

Active and inactive are the calls of the source.
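Wherever IC50 is given: confirmatory concentration-response retest of ultra-high-throughput screening hits for modulation of myocardial damage; cell death induced by hydrogen peroxide oxidative stress; compound pretreatment for 60 min then peroxide exposure for 2 h; potency is for protecting the cells against peroxide damage rather than for killing them.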

Sequence of Cytochrome P450 3A4 (P08684 whole entry): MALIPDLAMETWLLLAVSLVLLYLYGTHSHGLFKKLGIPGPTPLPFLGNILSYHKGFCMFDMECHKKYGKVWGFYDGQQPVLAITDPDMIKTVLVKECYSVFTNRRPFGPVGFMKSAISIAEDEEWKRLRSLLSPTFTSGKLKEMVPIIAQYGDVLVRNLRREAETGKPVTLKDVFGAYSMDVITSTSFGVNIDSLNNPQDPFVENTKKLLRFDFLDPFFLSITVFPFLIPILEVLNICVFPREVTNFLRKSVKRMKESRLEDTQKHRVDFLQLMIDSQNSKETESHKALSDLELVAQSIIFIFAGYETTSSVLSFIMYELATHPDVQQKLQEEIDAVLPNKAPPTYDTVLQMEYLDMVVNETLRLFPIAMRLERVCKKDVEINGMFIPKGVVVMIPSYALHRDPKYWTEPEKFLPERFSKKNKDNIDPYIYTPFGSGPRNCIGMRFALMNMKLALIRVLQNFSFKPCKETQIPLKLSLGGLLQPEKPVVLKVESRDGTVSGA
Sequence of Cytochrome P450 2C9 (P11712 whole entry): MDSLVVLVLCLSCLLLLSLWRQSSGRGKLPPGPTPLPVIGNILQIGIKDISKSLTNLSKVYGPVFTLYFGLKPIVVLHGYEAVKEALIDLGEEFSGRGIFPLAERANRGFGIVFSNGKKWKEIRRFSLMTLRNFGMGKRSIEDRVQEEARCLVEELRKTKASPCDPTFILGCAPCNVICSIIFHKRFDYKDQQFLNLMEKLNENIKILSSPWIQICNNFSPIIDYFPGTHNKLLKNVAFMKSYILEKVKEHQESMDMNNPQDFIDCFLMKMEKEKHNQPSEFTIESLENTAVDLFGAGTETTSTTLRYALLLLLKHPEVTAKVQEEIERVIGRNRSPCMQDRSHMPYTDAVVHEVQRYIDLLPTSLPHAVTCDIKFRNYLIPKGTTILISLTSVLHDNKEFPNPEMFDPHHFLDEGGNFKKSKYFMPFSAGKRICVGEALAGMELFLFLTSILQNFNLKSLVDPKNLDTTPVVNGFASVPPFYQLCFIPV
Sequence of Cytochrome P450 2C19 (P33261 whole entry): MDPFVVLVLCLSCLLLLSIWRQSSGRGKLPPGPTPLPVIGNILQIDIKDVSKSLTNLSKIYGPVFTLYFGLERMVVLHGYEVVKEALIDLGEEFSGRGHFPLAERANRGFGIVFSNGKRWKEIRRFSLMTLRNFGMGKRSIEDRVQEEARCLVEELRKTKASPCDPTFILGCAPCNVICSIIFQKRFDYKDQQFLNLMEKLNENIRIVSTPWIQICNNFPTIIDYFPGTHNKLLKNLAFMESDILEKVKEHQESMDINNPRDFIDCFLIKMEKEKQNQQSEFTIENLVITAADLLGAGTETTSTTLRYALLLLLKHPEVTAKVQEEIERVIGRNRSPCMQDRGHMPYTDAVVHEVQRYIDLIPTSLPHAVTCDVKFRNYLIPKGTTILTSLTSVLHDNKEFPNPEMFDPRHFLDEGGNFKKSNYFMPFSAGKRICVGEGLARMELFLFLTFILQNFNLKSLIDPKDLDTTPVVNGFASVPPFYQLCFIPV

For the molecule `COc1ccc(CNC(=O)c2coc(=O)c3ccccc23)c(OC)c1`, the EC50 in test [1], in [2] and in test [3] was > 120 µM (not active) in each case. Turning to `CCCn1c(=O)c2[nH]c(-c3ccccc3)nc2n(CCC)c1=O`, the AC50 in [4] is 10 µM (inconclusive); in test [5], 2.51 µM (inconclusive); in [6], 1.58 µM (inconclusive). In the case of `COc1ccc(CNc2nc(-c3ccc(C(=O)N(C)C)cc3)nc3ccccc23)c(OC)c1`, the AC50 was 3.98 µM (inconclusive) in test [5] and 1 µM (inconclusive) in test [6]. Take `Cc1noc(C)c1S(=O)(=O)N(C)C[C@H]1OCc2ccccc2-c2c(n(C)c3ccccc23)C(=O)N([C@@H](C)CO)C[C@H]1C`: in [7], the half-maximal activity concentration (AC50) was 4.65 µM (active). For the molecule `CC1(C)CC(=O)C(CCC(=O)c2ccccc2)C(C)(C)N1` (stereo unspecified), the AC50 is 28.2 µM (inconclusive) in test [4] and 12.6 µM (inconclusive) in test [5]. Moreover, the EC50 in test [8] is given as > 195 µM (not active).

For `COc1cc2c(cc1OC)CN(c1nc(-c3cccnc3)nc3ccccc13)CC2`, the IC50 in [9] was > 79 µM (inactive). For the molecule `CN(C)c1ccc(C(c2ccc(N(C)C)cc2)c2ccc([N+](=O)[O-])cc2)cc1`, the figures for the concentration at half-maximal activity (AC50) in test [10] and in test [5] were 3.16 µM (inconclusive) and 2 µM (inconclusive), respectively.

Consider `COc1ccc(-c2oc3ncn(CCN4CCOCC4)c(=N)c3c2-c2ccc(OC)cc2)cc1`, for which the EC50 in [1] was 19.6 µM (active); in test [2] it was 14.5 µM (active); in test [3], 8.99 µM (active). Regarding `O=C(Cn1cccc1)NC1CCCCCC1`, the values for the AC50 in test [4] and in test [5] were 6.31 µM (inconclusive) and 17.8 µM (inconclusive), respectively. Consider `CO[C@H]1COC(=O)[C@@H](C)COC(=O)[C@@H](Cc2ccccc2)NC(=O)C/C=C\[C@H]1C`, for which, in test [5], the concentration at half-maximal activity (AC50) was 6.31 µM (inconclusive).

For the molecule `CSc1n[nH]c(-c2sccc2OCc2ccc(C)cc2)n1`, the AC50 in test [5] is 20 µM (inconclusive). With `O=C1C2C3C=CC([C@@H]2C(=O)N1C1CCCCC1)[C@H]1C(=O)N(C2CCCCC2)C(=O)C31` (stereo partly specified), the AC50 in test [4] was 17.8 µM (inconclusive); in test [5] it was 3.55 µM (inconclusive); in [6], 6.31 µM (inconclusive). `CC(C)[C@@H](C(=O)N1CCCC1)N1C(=O)N2CCc3c([nH]c4ccccc34)[C@@]2(C)C1=O`: the EC50 in test [1], in test [2] and in test [3] was > 120 µM (not active) each time.

As for `COC(=O)c1[nH]c2ccccc2c1NC(=O)CNC1CCCCC1`, the IC50 in test [9] is > 79 µM (inactive). As for `CC(=O)NC/C(C)=N\Nc1ccc([N+](=O)[O-])cc1`, in test [11], the EC50 is 33.9 µM (active).

With `O=C(N/N=C/c1ccco1)/C(=C/c1cccc([N+](=O)[O-])c1)NC(=O)c1ccccc1`, the concentration at half-maximal activity (AC50) in [4] is 1 µM (inconclusive); in test [5], 1.12 µM (inconclusive).

`COc1ccc(-c2cc(-c3ccc(O)cc3)nc(N)c2C#N)cc1OC`: the IC50 in test [9] is > 79 µM (inactive).

Take `Cc1c(C(=O)Nc2ccc3nc(N4CCOCC4)sc3c2)oc2ccccc12`: the IC50 in [9] was > 79 µM (inactive). Consider `CC(C)n1c(=O)c2c(=O)cc(O)oc2c2ccccc21`, for which the EC50 in test [12] was 27.8 µM (active); in [13], > 150 µM (not active); in test [14] it was > 150 µM (not active). Moreover, the AC50 in test [4] was 10 µM (inconclusive); in test [5], 2.51 µM (inconclusive). In the case of `CCOc1cc(CNc2ccc3c(c2)OCCO3)cc(Br)c1OC`, the EC50 in [1] was 10.7 µM (active); in test [3] it was > 60 µM (inconclusive). As to `COc1cc(/C=C(\C#N)C(=O)Nc2ccccc2)ccc1OCCN1CCOCC1`, in test [9], the IC50 is > 79 µM (inactive). For the molecule `Cc1ccc(C)c(C(=O)Nc2cc(C)nn2-c2nc(C)cc(C)n2)c1`, the IC50 in test [9] is > 79 µM (inactive). Besides, the EC50 in test [8] was > 195 µM (not active). `C=CCSc1nnc(C)c(/C=C/Nc2ccc(Cl)cc2)n1`: in test [15], the EC50 is 4.77 µM (active). With `Cc1ccc(CS(=O)(=O)CCC(=O)NCc2ccccn2)cc1`, the AC50 in test [5] is 31.6 µM (inconclusive).

As to `CC(C)c1ccccc1NC(=O)COC(=O)c1c2c(nc3ccccc13)CCN(Cc1ccccc1)C2`, the IC50 in test [9] is > 79 µM (inactive). As for `CN(C)c1oc(-c2ccccc2Cl)nc1C#N`, the EC50 in test [1] is 19.6 µM (active); in test [2] it was 33.3 µM (active); in test [3], > 120 µM (not active). As to `COc1ccc(CC(=O)N/N=C(\C)c2ccccn2)cc1`, in test [9], the IC50 is > 79 µM (inactive). Further, the EC50 in test [1] was 9.61 µM (active); in test [2], 9.41 µM (active); in test [3] it was 10.9 µM (active).

Regarding `Cc1cc(C)nc(SCc2ccc(C(=O)N/N=C/c3ccccn3)cc2)n1`, in test [9], the IC50 is > 79 µM (inactive). For the molecule `Brc1ccc(/C=C/C=N/Nc2nc3ccccc3s2)cc1`, the EC50 in test [11] is 89.4 µM (inconclusive). In [6], the AC50 was 7.08 µM (inconclusive).

With `CCOC(=O)N1CCN(C(=O)c2cnc3ccc(S(=O)(=O)N(C)c4cccc(C)c4)cc3c2O)CC1`, the EC50 in test [15] is 3.84 µM (active). As for `CCCCSc1nc(C)cc(C)c1S(=O)(=O)c1ccccc1C`, the values for the AC50 in test [5] and in [6] were 28.2 µM (inconclusive) and 10 µM (inconclusive), respectively. Regarding `Cc1ccc(CSC(=N)Nc2ccccc2)cc1C`, in test [5], the half-maximal activity concentration (AC50) was 3.16 µM (inconclusive).

The values are drawn from ChEMBL document CHEMBL1201862, “PubChem BioAssay data set” (2004).
